{"source": "ChEMBL document CHEMBL2346525", "about": "“Diastereotopic and deuterium effects in gemini” (J Med Chem, 2013)", "organism": "Homo sapiens", "assay": "Cytotoxicity against human ER negative MCF10CA1a cells assessed as growth inhibition after 3 days by [3H]thymidine incorporation assay", "format": "functional, cell-based", "conditions": "tested as the 2H-labelled form", "note": "Active and inactive are the calls of the source. No cut-off for these calls is given here.", "data": [{"compound": "C=C1/C(=C\\C=C2/CCC[C@]3(C)[C@@H](C(CCCC(C)(C)O)CCCC(C)(C)O)CC[C@@H]23)C[C@@H](O)C[C@@H]1O", "values": [{"measurement": "growth inhibition (GI)", "value": "Active"}]}, {"compound": "CC(C)(O)CCCC(CCCC(C)(C)O)[C@H]1CC[C@H]2/C(=C/C=C3C[C@@H](O)C[C@H](O)C3)CCC[C@]12C", "values": [{"measurement": "growth inhibition (GI)", "value": "Active"}]}]}
